Reference: PubChem BioAssay (NCI)
Values joined by “and” are separate entries in the source; they are usually repeats but may differ in a detail not shown here. Equal values may be shown once.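 Grown in 96-well plates, cells were treated for 48 hours with each compound at five concentrations. Insufficient inhibition: endpoint recorded as highest concentration tested. GI50 = concentration required for 50% inhibition of growth. TGI denotes the concentration required for complete inhibition of growth.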

How the values were obtained:
Assay in all cases: inhibition of tumour cell growth, NCI panel, 48 h
KM12 colon = test system: KM12 colon
K-562 leukemia = test system: K-562 leukemia
SR leukemia = test system: SR leukemia
SNB-19 CNS = test system: SNB-19 CNS
UACC-257 melanoma = test system: UACC-257 melanoma
SN12C renal = test system: SN12C renal
SF-295 CNS = test system: SF-295 CNS
BT-549 breast = test system: BT-549 breast
MCF7 breast = test system: MCF7 breast
SK-MEL-2 melanoma = test system: SK-MEL-2 melanoma

Compound	TGI (KM12 colon)	TGI (K-562 leukemia)	TGI (SR leukemia)	TGI (SNB-19 CNS)	TGI (UACC-257 melanoma)	TGI (SN12C renal)	TGI (SF-295 CNS)	TGI (BT-549 breast)	TGI (MCF7 breast)	TGI (SK-MEL-2 melanoma)	GI50 (KM12 colon)	GI50 (K-562 leukemia)	GI50 (MCF7 breast)	GI50 (SK-MEL-2 melanoma)	GI50 (SNB-19 CNS)	GI50 (UACC-257 melanoma)	GI50 (SN12C renal)	GI50 (SF-295 CNS)	GI50 (SR leukemia)
C/C(N=NS(=O)(=O)c1c(C)cc(C)cc1C)=C1\C=CC=CN1O	> 100 µM	> 100 µM	> 100 µM	> 100 µM	> 100 µM	> 100 µM	> 100 µM												
COc1ccc(-c2c(/C=N/OCC(=O)O)c3sc4ccccc4n3c2/C=N/OCC(=O)O)cc1	> 50 µM	> 50 µM		> 50 µM	> 50 µM	> 50 µM	> 50 µM	> 50 µM	> 50 µM	> 50 µM									
CCOC(=O)C1=C(N2CCCC2)C(=O)C(C(=O)OCC)C1 (stereo unspecified)	> 100 µM	> 100 µM		> 100 µM	> 100 µM	> 100 µM	> 100 µM	> 100 µM	> 100 µM	> 100 µM									
CSCCC(NC(=O)C(Cc1c[nH]c2ccccc12)NC(=O)CCNC(=O)OC(C)(C)C)C(=O)NC(CC(=O)O)C(=O)NC(Cc1ccccc1)C(N)=O (stereo unspecified)	> 50 µM	> 50 µM			> 50 µM	> 50 µM	> 50 µM	> 50 µM	> 50 µM	> 50 µM									
CC(C)=CC(=O)OC1C2C(C)=CC(=O)C(O)C2(C)C2C3(O)OCC24C(CC(=O)OC14)C(C)C3O (stereo unspecified)		0.0775 µM and 0.237 µM		0.0303 µM and 0.0462 µM	0.0436 µM and 0.0432 µM	0.245 µM and 0.089 µM and 0.327 µM	0.154 µM and 0.0672 µM and 0.0966 µM	0.00846 µM	0.00664 µM	0.0723 µM and 0.0279 µM and 0.0695 µM	0.0209 µM	0.02 µM	0.00159 µM	0.025 µM	0.0273 µM	0.02 µM	0.0133 µM and 0.0406 µM	0.0126 µM	
C=CC(C)(C)/C(=C\CO[Si](C(C)C)(C(C)C)C(C)C)C(=O)N(C)c1ccccc1I	> 100 µM		27.7 µM	28.1 µM	28.7 µM	29.7 µM	28.8 µM		26.1 µM										
CCOC(=O)/C=C(/C(=O)OCC)n1cc(C)c(=O)n(Cc2cn(CCCCOC(C)=O)nn2)c1=O	29.5 µM	> 100 µM	62.4 µM	41.9 µM	36.8 µM	91.7 µM	> 100 µM		42.2 µM	45.1 µM									
COc1cccc(C2C(C#N)=C(N)Oc3cc(OCCCCCC[P+](c4ccccc4)(c4ccccc4)c4ccccc4)ccc32)c1 (stereo unspecified)	1.58 µM	> 23.7 µM	1.92 µM	1.44 µM			3.19 µM				0.433 µM	0.334 µM			0.366 µM			1.58 µM	0.36 µM
CC1(C)CC(=O)C2=C(C1)NC(=S)C(C#N)C2c1ccccc1 (stereo unspecified)		> 100 µM		> 100 µM	> 100 µM	> 100 µM	> 100 µM	> 100 µM	> 100 µM	> 100 µM									
C[C@H](NC(=O)C(C)(Cc1ccc(O)cn1)NC(=O)c1ccccc1)c1ccccc1 (stereo partly specified)	> 100 µM	> 100 µM		> 100 µM	> 100 µM	> 100 µM	> 100 µM	> 100 µM	> 100 µM	> 100 µM									
COC1OC(C)/C(=N/O)C2OC(C)(C)OC12 (stereo unspecified)	> 100 µM	> 100 µM	> 100 µM	> 100 µM	> 100 µM	> 100 µM	> 100 µM	> 100 µM	> 100 µM										
